From patent US7947270B2, “Removing dental plaque with krill enzymes” (Arcimboldo AB, priority 1992, dated 2011)
Where a SMILES comes first, the peptide text is derived from it.

How the values were obtained:
[1] = molecular target: krill-derived multifunctional hydrolase (antarctic krill); experiment: cell-based or functional assay
[2] = tested on: krill-derived multifunctional hydrolase; experiment: protease inhibitors at pH 9.5 against hydrolase preparations; assay type: biochemical, antarctic krill
Protocol: The effectiveness of three protease inhibitors was tested at pH 9.5 against the three hydrolase preparations.

[3] = tested on: krill-derived multifunctional hydrolase (Prep-8); experiment: protease inhibitors against Prep-8 at pH 7.5; assay type: biochemical, antarctic krill
Protocol: The effectiveness of other protease inhibitors against Prep-8 was tested in a 0.1 M Tris-HCl buffer pH 7.5. Benzoyl-val-gly-arg-p-nitroanilide (“ARG-p-NA”) and succinyl-ala-pro-phe-p-nitroanilide (Phe-pNA) were used as substrates.

[4] = tested on: krill-derived multifunctional hydrolase (antarctic krill), Prep-3 (eluted at pH 3), SEQ ID NO. 1 (N-terminal sequence); experiment: Km determination, krill-derived multifunctional hydrolase Prep-3; assay type: biochemical; conditions: 0.1 M CAPS buffer, 2 mM Ca++, pH 9.5
Protocol: (§1) The krill-derived multifunctional hydrolase was purified by the protocol described above in Example 1C. Three preparations the krill-derived multifunctional hydrolase were prepared. The three preparations differed only in that the krill multifunctional hydrolase was eluted from the trypsin inhibitor gel with buffer at pH 3, pH 8, and pH 11, respectively. These preparations shall be termed “Prep-3,” “Prep-8,” and “Prep-11.” These preparations were dissolved in water to a concentration of 6 mg/ml.
(§2) The SDS bands were electroblotted onto PVDF membranes and sequenced through 25 cycles of Edman degradation. See, Matsudaira, J. Biol. Chem., 262: 10035-10038, 1987. […] Accordingly, it is clear that all three preparations are homogenous, although each is micro-heterogeneous at position 5. The proteolytic activity of each of the three preparations was tested against substrate benzoyl-val-gly-arg-p-nitroaniline. Hydrolysis of this substrate can be monitored at […], reflecting the release of p-nitroaniline. The profile for Prep-3 (shown with filled squares), Prep-8 (shown with open diamonds) and Prep-11 (shown with filled diamonds) are identical.

[5] = tested on: krill-derived multifunctional hydrolase (antarctic krill), Prep-11 (eluted at pH 11), SEQ ID NO. 1 (N-terminal sequence); experiment: Km determination, krill-derived multifunctional hydrolase Prep-11; assay type: biochemical; conditions: 0.1 M CAPS buffer, 2 mM Ca++, pH 9.5
Protocol: as §1, §2

[6] = tested on: krill-derived multifunctional hydrolase (antarctic krill), Prep-8 (eluted at pH 8), SEQ ID NO. 1 (N-terminal sequence); experiment: Km determination, krill-derived multifunctional hydrolase Prep-8; assay type: biochemical; conditions: 0.1 M CAPS buffer, 2 mM Ca++, pH 9.5
Protocol: as §1, §2

[7] = tested on: mice with s.c. implanted P388 murine leukemia; experiment: toxicity on mice with P388 murine leukemia
[8] = tested on: mice with P388 murine leukemia; experiment: Toxicity on mice with s.c. implanted P388 murine leukemia; assay type: in vivo; conditions: all mice in doxorubicin group except those receiving the lowest dosage
[9] = tested on: HL60 cells; experiment: in vitro binding of HL60 cells to endothelial cells; assay type: cell-based, human
Protocol: Endothelial cells were first passaged onto 96 well plates at a given concentration. The endothelial cells used in the experiment are described in Edgell et al., Proc. Natl. Acad. Sci. USA (1983) 80:3734. The cells were incubated at 37° C. under a DMEM cell culture medium containing 10% fetal calf serum and under a 5% CO2 atmosphere. Then, the medium was removed and replaced with 100 μl of a suspension of 200,000 HL60 cells (a […], available from the European Cell Culture Bank under ECACC Accession No. 85011431) in RPMI medium containing 10% fetal calf serum. The cells were incubated for 30 minutes. After this, the medium was removed and the adherent cells were washed two times with DMEM medium. The relative adherence of the HL60 cells was measured by measuring the difference in optical density at 450 nm between the plates on which the cells were co-incubated and plates having endothelial cells alone.
The effect of TNFα was measured by adding TNFα at 1500 units/ml to the endothelial cells 4 hours before the incubation with HL60 cells. The effect of antibody to E-selectin was measured by adding 25 μg/ml of monoclonal antibody BBAZ (R&D Systems Europe, Oxford, England) to the HL60 cells. The results of the experiments were: […]
The number of HL60 cells was determined by subtracting the cell numbers for control plates having only endothelial cells. […]

[10] = Prep-11, pH 9.5, inhibitor 1 μM
[11] = substrate Arg-pNA, inhibitor 0.2 μM, pH 7.5
[12] = substrate Phe-pNA, inhibitor 0.2 μM, pH 7.5
[13] = substrate Arg-pNA, inhibitor 10 μM, pH 7.5
[14] = substrate Phe-pNA, inhibitor 10 μM, 0.1 M Tris-HCl pH 7.5

Sequence of krill-derived multifunctional hydrolase (antarctic krill) (P86599 1-25): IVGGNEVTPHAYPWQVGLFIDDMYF

Anti-Thrombin III [listing 1 of 2 here]
Activity remaining, % of Prep-8 with 0.2 µM inhibitor, substrate Arg-pNA, pH 7.5 (% activity remaining) [1]: 4
Activity remaining, % of Prep-8 with 0.2 µM inhibitor, substrate Phe-pNA, pH 7.5 (% activity remaining) [1]: 2

Bovine pancreatic trypsin inhibitor
% activity remaining ([2]; Prep-3, pH 9.5, inhibitor 1 μM): 2%
% activity remaining ([2]; Prep-8, pH 9.5, inhibitor 1 μM): 1%
% activity remaining [2, 10]: 1%

α-proteinase inhibitor: protease inhibitor
Activity remaining, % [3, 11]: 0%
Activity remaining, % [3, 12]: 0%

Eglin C fragment (peptide)
Activity remaining, % of Prep-8 with 8.4 µM inhibitor, substrate Phe-pNA, pH 7.5 (% activity remaining) [1]: 100

CC(C)C[C@H](NC(=O)N[C@H](C(=O)N[C@@H](CCC(N)=O)C(=O)N[C@@H](C)C=O)[C@@H]1CCNC(=N)N1)C(=O)O [Elastatinal]
Activity remaining, % [3, 13]: 100%
Activity remaining, % [3, 14]: 100%

α-proteinase inhibitor
Activity remaining, % of Prep-8 with 0.2 µM inhibitor, substrate Arg-pNA, pH 7.5 (% activity remaining) [1]: 0
Activity remaining, % of Prep-8 with 0.2 µM inhibitor, substrate Phe-pNA, pH 7.5 (% activity remaining) [1]: 0

CC(C)C[C@H](NP(=O)(O)O[C@@H]1O[C@@H](C)[C@H](O)[C@@H](O)[C@H]1O)C(=O)N[C@@H](Cc1c[nH]c2ccccc12)C(=O)O [Phosphoramidon]
Activity remaining, % [3, 13]: 87%
Activity remaining, % [3, 14]: 94%

Anti-Thrombin III [listing 2 of 2 here]
Activity remaining, % [3, 11]: 4%
Activity remaining, % [3, 12]: 2%

CC(C)C[C@H](NC(=O)[C@@H](NC(=O)N[C@@H](Cc1ccccc1)C(=O)O)[C@@H]1CCN=C(N)N1)C(=O)N[C@H](C=O)Cc1ccccc1 [Chymostatin]
% activity remaining ([2]; Prep-3, pH 9.5, inhibitor 1 μM): 0%
% activity remaining ([2]; Prep-8, pH 9.5, inhibitor 1 μM): 0%
% activity remaining [2, 10]: 0%

C[C@H](NC(=O)CCC(=O)O)C(=O)N[C@@H](C)C(=O)N1CCC[C@H]1C(=O)N[C@@H](Cc1ccccc1)C(=O)Nc1ccc([N+](=O)[O-])cc1 [succinyl-ala-ala-pro-phe-p-nitroanilide] (HELM PEPTIDE1{[O=C(O)CCC(=O)[*:2]].A.A.P.F.[O=[N+]([O-])c1ccc(N[*:1])cc1]}$$$$V2.0)
Km [4]: 260 ± 50 µM
Km [5]: 270 ± 40 µM
Km [6]: 270 ± 50 µM

COc1cccc2c1C(=O)c1c(O)c3c(c(O)c1C2=O)C[C@@](O)(C(=O)CO)C[C@@H]3O[C@H]1C[C@H](N)[C@H](O)[C@H](C)O1 [DOX, doxorubicin]
Toxic death ([7]; 2.5 mg/kg i.p. daily, 9 consecutive days): 6/6
death and weight loss (summary) ([7]; all doses): all mice in the doxorubicin group, except for those receiving the lowest dosage, lost weight and died
weight loss and death of mice [8]: lost weight and died

TNFα
HL60 cell number ([9]; Expt 2: endothelial cells pretreated with TNFα): 43,990
Absorbance (increase over endothelial cells alone) ([9]; Expt 2: endothelial cells pretreated with TNFα 1500 units/ml 4 hours): 0.444

CC(C)[C@H](NC(=O)c1ccccc1)C(=O)NCC(=O)N[C@@H](CCCNC(=N)N)C(=O)Nc1ccc([N+](=O)[O-])cc1 [benzoyl-pal-gly-arg-p-nitroanilide] (HELM PEPTIDE1{[O=C(c1ccccc1)[*:2]].V.G.R.[O=[N+]([O-])c1ccc(N[*:1])cc1]}$$$$V2.0)
Km [4]: 210 ± 8 µM
Km [5]: 230 ± 13 µM
Km [6]: 210 ± 8 µM

B1: α-anti-chymotrypsin (protein, UniProt P01011 24-423, looked up, species assumed)
Alpha-1-antichymotrypsin: HPNSPLDEENLTQENQDRGTHVDLGLASANVDFAFSLYKQLVLKAPDKNVIFSPLSISTALAFLSLGAHNTTLTEILKGLKFNLTETSEAEIHQSFQHLLRTLNQSSDELQLSMGNAMFVKEQLSLLDRFTEDAKRLYGSEAFATDFQDSAAAKKLINDYVKNGTRGKITDLIKDLDSQTMMVLVNYIFFKAKWEMPFDPQDTHQSRFYLSKKKWVMVPMMSLHHLTIPYFRDEELSCTVVELKYTGNASALFILPDQDKMEEVEAMLLPETLKRWRDSLEFREIGELYLPKFSISRDYNLNDILLQLGIEEAFTSKADLSGITGARNLAVSQVVHKAVLDVFEEGTEASAATAVKITLLSALVETRTIVRFNRPFLMIIVPTDTQNIFFMSKVTNPKQA
Activity remaining, % [3, 11]: 7%
Activity remaining, % [3, 12]: 1%
Activity remaining, % of Prep-8 with 0.2 µM inhibitor, substrate Arg-pNA, pH 7.5 (% activity remaining) [1]: 7
Activity remaining, % of Prep-8 with 0.2 µM inhibitor, substrate Phe-pNA, pH 7.5 (% activity remaining) [1]: 1
